Legend:
[1] = system: HL-60; assay: HL-60 differentiation potency; format: cell-based; details: Homo sapiens
[2] = in vitro; details: human

| Structure (SMILES) | EC50 [1] | IC50 [2] |
| --- | --- | --- |
| C[C@H]1[C@@H](Oc2ccc(C(=O)N[C@H](C(=O)O)C(C)(C)C)cc2)O[C@@H]2O[C@@]3(C)CC[C@H]4[C@H](C)CC[C@@H]1[C@@]24OO3 [Compound 184, (S)-3,3-dimethyl-2-(4-(((3R,5aS,6R,8aS, 9R,10S,12R, 12aR)-3,6,9-trimethyldeca-hydro-12H-3,12-epoxy[1,2]dioxepino[4,3-i]isochromen-10-yl)oxy)benzamido) butanoic acid] | 17 nM | 800 nM |
| C[C@H]1[C@H](OCCCc2ccc(C(=O)O)cc2F)O[C@@H]2O[C@@]3(C)CC[C@H]4[C@H](C)CC[C@@H]1[C@@]24OO3 [Compound 174, 3-fluoro-4-(3-(((3R,5aS,6R,8aS, 9R,10R,12R, 12aR)-3,6,9-trimethyldeca-hydro-12H-3,12-epoxy[1,2]dioxepino[4,3-i]isochromen-10-yl)oxy)propyl) benzoic acid] | 111 nM | 7000 nM |
| C[C@H]1[C@@H](OCC23CCC(C(=O)O)(CC2)CC3)O[C@@H]2O[C@@]3(C)CC[C@H]4[C@H](C)CC[C@@H]1[C@@]24OO3 [Compound 75, 4-((((3R,5aS,6R, 8aS,9R,10S,12R, 12aR)-3,6,9-trimethyldeca-hydro-12H-3,12-epoxy[1,2]dioxepino[4,3-i]isochromen-10-yl)oxy)methyl) bicyclo[2.2.2] octane-1-carboxylic acid] | 1180 nM | > 20000 nM |
| C[C@H]1[C@H](OCc2c(F)cc(C(=O)O)cc2F)O[C@@H]2O[C@@]3(C)CC[C@H]4[C@H](C)CC[C@@H]1[C@@]24OO3 [Compound 137, 3,5-difluoro-4-((((3R,5aS,6R,8aS, 9R,10R,12R, 12aR)-3,6,9-trimethyldeca-hydro-12H-3,12-epoxy[1,2]dioxepino[4,3-i]isochromen-10-yl)oxy)methyl) benzoic acid] | 86.8 nM | > 20000 nM |
| C[C@H]1[C@H](NCc2ccc(S(C)(=O)=O)cc2)O[C@@H]2O[C@@]3(C)CC[C@H]4[C@H](C)CC[C@@H]1[C@@]24OO3 [Compound 58, (3R,5aS,6R,8aS, 9R,10R,12R, 12aR)-3,6,9-trimethyl-N-(4-(methylsulfonyl)benzyl) decahydro-12H-3,12-epoxy[1,2] dioxepino[4,3-i] isochromen-10-amine] | 9120 nM | 8340 nM |
| C[C@H]1[C@@H](OCC(=O)N2CC[C@@H](C(=O)O)C2)O[C@@H]2O[C@@]3(C)CC[C@H]4[C@H](C)CC[C@@H]1[C@@]24OO3 [Compound 161, (R)-1-(2-(((3R,5aS,6R,8aS, 9R,10S,12R, 12aR)-3,6,9-trimethyldeca-hydro-12H-3,12-epoxy[1,2]dioxepino[4,3-i]isochromen-10-yl)oxy)acetyl) pyrrolidine-3-carboxylic acid] | > 20000 nM | > 20000 nM |
| C[C@H]1[C@H](NCCS(=O)(=O)C(F)(F)F)O[C@@H]2O[C@@]3(C)CC[C@H]4[C@H](C)CC[C@@H]1[C@@]24OO3 [Compound 28, (3R,5aS,6R,8aS, 9R,10R,12R, 12aR)-3,6,9-trimethyl-N-(2-((trifluoromethyl)sulfonyl)ethyl) decahydro-12H-3,12-epoxy[1,2] dioxepino[4,3-i] isochromen-10-amine] | 256 nM | 446 nM |
| C[C@H]1[C@@H](OC2C[C@H]3CC(C(=O)O)C[C@@H]23)O[C@@H]2O[C@@]3(C)CC[C@H]4[C@H](C)CC[C@@H]1[C@@]24OO3 (stereo partly drawn) [Compound 157, (1R,5R)-6-(((3R,5aS,6R,8aS, 9R,10S,12R, 12aR)-3,6,9-trimethyldeca-hydro-12H-3,12-epoxy[1,2]dioxepino[4,3-i]isochromen-10-yl)oxy)bicyclo [3.2.0]heptane-3-carboxylic acid] | 797 nM | > 20000 nM |
| C[C@H]1[C@@H](OCc2cc(F)c(C(=O)O)c(F)c2)O[C@@H]2O[C@@]3(C)CC[C@H]4[C@H](C)CC[C@@H]1[C@@]24OO3 [Compound 29, 2,6-difluoro-4-((((3R,5aS,6R, 8aS,9R,10S,12R, 12aR)-3,6,9-trimethyldeca-hydro-12H-3,12-epoxy[1,2]dioxepino[4,3-i]isochromen-10-yl)oxy)methyl) benzoic acid] | 283 nM | > 20000 nM |

Reference: US20260242391A1 (priority 2023, published 2026)
